In patent publication US20240180817A1, “PLANT FERMENTED LIQUID, PLANT FERMENTED PRODUCT PRODUCED USING GLUCONOBACTER THAILANDICUS STRAIN AND USE THEREOF” (LG HOUSEHOLD & HEALTH CARE LTD., priority 2022, published 2024):

Test system: human keratinocyte HaCaT
Test: Hyaluronic acid synthesis, Quantikine ELISA Hyaluronan
Type: cell-based
Conditions: 30 ppb, 72 hours
Method: Samples were treated with human keratinocyte HaCaT for 72 hours at each concentration. Hyaluronic acid synthesis was compared with the control group (DMEM treatment containing 0% serum) using Quantikine ELISA Hyaluronan from R&D Systems to quantify the moisturizing ability.

SMILES: CC1=C(/C=C/C(C)=C/C=C/C(C)=C/C(=O)O)C(C)(C)CCC1 [Retinoic acid]
- Hyaluronic Acid Synthesis Ability: 18.6 % of control
